Literature values as cited in patent US20230046963A1, “METHOD FOR DYEING KERATINOUS MATERIAL, COMPRISING THE USE OF AN ORGANOSILICON COMPOUND, A DYEING COMPOUND AND A PRE-TREATMENT AGENT” (Henkel AG & Co. KGaA, priority 2019, published 2023).

Settings: 25° C.

Row | solubility in water | solubility in water (in words) | Molecule
1 | more than 7 g/L | – | O=S(=O)([O-])c1ccc(N=Nc2c(O)ccc3ccccc23)cc1.[Na+] [Acid Orange 7, sodium salt of 4-[(2-hydroxy-1-naphthyl)azo]benzenesulfonate]
2 | 2.5 mg/mL | – | Nc1cc(S(=O)(=O)[O-])cc2cc(S(=O)(=O)[O-])c(N=Nc3ccccc3)c(O)c12.[Na+].[Na+] [Acid Red 33, disodium salt of 5-amino-4-hydroxy-3-(phenylazo)-naphthalene-2,7-disulphonate]
3 | – | readily soluble in water | O=C([O-])C1=NN(c2ccc(S(=O)(=O)[O-])cc2)C(=O)C1N=Nc1ccc(S(=O)(=O)[O-])cc1.[Na+].[Na+].[Na+] (centres unmarked) [Acid Yellow 23, trisodium salt of 4,5-dihydro-5-oxo-1-(4-sulfophenyl)-4-((4-sulfophenyl)azo)-1H-pyrazole-3-carboxylic acid]
4 | 20 mg/mL | – | mixture of the sodium salts of mono- and disulfonic acids of 2-(2-quinolyl)-1H-indene-1,3(2H)-dione [Acid Yellow 3]

Row | Molecule | solubility in water | solubility in water (in words)
5 | O=C([O-])c1c(Cl)c(Cl)c(Cl)c(Cl)c1-c1c2c(Br)cc(=O)c(Br)c-2oc2c(Br)c(O)cc(Br)c12.O=C([O-])c1c(Cl)c(Cl)c(Cl)c(Cl)c1-c1c2c(Br)cc(=O)c(Br)c-2oc2c(Br)c(O)cc(Br)c12.[Na+].[Na+] [Acid Red 92, disodium salt of 3,4,5,6-tetrachloro-2-(1,4,5,8-tetrabromo-6-hydroxy-3-oxoxanthen-9-yl)benzoic acid] | greater than 10 g/L | –
